Data: patent US20050261162A1, “Pharmaceutical composition for preventing and treating cancer and treating an inflammation” (priority 2001, published 2005)

Assays:
[1] = tested on: quinone reductase (QR); experiment: Induction of quinone reductase activity in Hepa 1c1c7 cells; assay type: cell-based, rat; conditions: 48 hours, compared with the control
Description: Hepa 1c1c7 cell (2.5×10^4/ml), a liver cancer cell of […], was seeded into 96 well plate and was cultured in 10% FBS-αL-MEM (Gibco BRL) at 37° C. for 24 hours in 5% CO2 of humidified air. 190 μl of fresh media and 10 μl of xanthorrhizol dissolved in 10% of DMSO was added to above culture media and it was cultured under 5% CO2 at 37° C. for 48 hours. The culture media were discarded, and after washing with PBS (phosphate buffered saline), 50 μl of reaction solution containing 0.8% digitonin and 2 mM EDTA was added to each well, and it was cultured for 10 minutes to destroy the cell. […] Then, 50 μl of 5 mM potassium phosphate (pH 7.4) solution containing 0.3 mM of dicoumarol was added to terminate the reaction and the absorbance at 595 nm was measured spectrophotometrically.
To assess the effect of xanthorrhizol on cell growth, protein was measured in the 2nd plate set cultured under same condition above. […] And 200 μl of 0.5% SDS was added to cell and mixed, then the absorbance at 595 nm was measured spectophotometrically.
To estimate the experimental result, firstly, QR specific activity of each group treated with xanthorrhizol and the control group was calculated by following equation 1. […] QR specific activity=(Absorbance change of MTT per min/Absorbance change of crystal violet)×3247 nmol/mg [Equation 1] […]

[2] = tested on: COX-2; experiment: Inhibition of COX-2 expression induced by TPA in mouse skin (western blotting); assay type: in vivo, ICR mice; conditions: topical pretreatment 30 min before TPA 10 nmol; skin taken 4 hr later
Description: It is known that the expression of COX-2 increases in mouse skin treated with TPA. Therefore, the effect of xanthorrhizol on COX-2 expression induced by TPA was measured as follows on the basis of this fact.
Female ICR mice of about 5 weeks of age were purchased from the Daehan Experimental Animal Center (Seoul, Korea). Mice were kept on a 12 h light/dark cycle.
The dorsal region of mice was shaved with an electric clipper. 2 days later, xanthorrhizol dissolved in 0.2 ml acetone was topically applied on mouse skin followed by topical application of TPA (10 nmol) dissolved in 0.2 ml acetone after 30 min. Mice were sacrificed by cervical dislocation 4 hr later. The skin was excised and the fat was removed. Fat-free skin was immediately placed in liquid nitrogen and pulverized in mortar.
Pulverized mouse skin was lysed in 400 μl of lysis buffer [150 mM NaCl, 0.5% Triton X-100, 50 mM tris-HCl, pH 7.4, 20 mM EGTA, 1 mM DTT, 1 mM Na3VO4, protease inhibitor cocktail tablet] for 30 min on ice. Lysates were centrifuged and total protein in supernatant was quantified by Bio-Rad protein assay. Aliquots of supernatant containing 30 μg protein were boiled in SDS sample loading buffer for 5 min before electrophoresis on a 12% SDS-polyacrylamide gel. […]

[3] = tested on: IκBα; experiment: Inhibition of IκB degradation in mouse skin treated with TPA (western blotting); assay type: in vivo; conditions: mouse skin cytoplasmic extract, topical pretreatment before TPA
Description: To examine the effect of xanthorrhizol on IκB, the level of IκB was measured in mouse skin. Cytoplasmic extract was prepared as follows. The mouse skin tissue obtained by the same method of embodiment 4 was homogenized in hypotonic buffer solution [10 mM HEPES, pH 7.8, 10 mM KCl, 2 mM MgCl2, 1 mM DTT, 0.1 mM EDTA, 0.1 mM phenylmethylsulfonyl fluoride (PMSF)]. To the homogenates was added 125 μl of 10% Nondiet P-40 solution and the mixture was then centrifuged for 30 sec. The supernatant (cytoplasmic extract) was electrophoresized on the 12% SDS-polyacrylamide gel. Blot was transferred from SDS-polyacrylamide gel to PVDF membrane, blocked with 5% fat-free dry milk-PBST buffer for 2 hr at room temperature and then washed in PBST buffer. Membrane was incubated for 2 hr at room temperature with rabbit IκBα polyclonal antibody (Santa Cruz Product, Santa Cruz, Calif., USA). Blot was rinsed with PBST, incubated with anti-rabbit horseradish peroxidase-conjugated secondary antibody (Santa Crus product, Santa Cruz, Calif., USA) and again washed 3 times in PBST buffer for 5 min. Transferred protein was visualized with an ECL detection kit.

[4] = tested on: HL-60 cells; experiment: DNA fragmentation in HL-60 cells (agarose gel electrophoresis); assay type: cell-based, Human; conditions: 80 μM, 24 hr
Description: HL-60 cells were cultured in 10% FBS-RPMI 1640 medium of 100 mm Petri dish for 2 days. The cells were treated with 0,10, 40, 80 μM of xanthorrhizol to investigate the effect of xanthorrhizol on DNA fragmentation, a biochemical marker of apoptosis. After 24 hr, the cells were collected, incubated with 500 μl of lysis buffer (1 % Triton-X 100, 50 mM Tris-HCl pH 7.4, 20 mM EDTA) for 1 hr on ice, and centrifuged. To the supernatant was added 100 μl of 1% SDS, 10 μl f TE/RNase(10 mg/ml), 50 µl of proteinase K (1 mg/ml) and the mixture was incubated at 37° C. at least for 4 hr. DNA was extracted with phenol-chloroform-isoamylalcohol (25:24:1, v/v) and precipitated at −70° C. for 1 hr after addition of 2.5 volumes of cold ethanol. DNA fragments were resolved by 1.5% agarose gel electrophoresis and visualized by staining with ethidium bromide.

Compound: CC(C)=CCC[C@@H](C)c1ccc(C)c(O)c1 [xanthorrhizol]
- QR induction ratio (treated/control) ([1]; 0.4 μM): about 125%
- QR induction ratio (treated/control) ([1]; 50 μM): ~130%
- expression of COX-2 induced by TPA [2]: decreased by pretreatment with xanthorrhizol in a dose-dependent manner
- degradation of IκBα induced by TPA [3]: inhibited by xanthorrhizol in a dose dependent manner
- DNA fragmentation [4]: induced
